Measurements taken from patent US20050112573A1, “Method of detecting toxic substance” (priority 2001, published 2005).

System: yeast genes (level of expressed mRNA)
Experiment: DNA chip analysis of expressed mRNA of yeast genes after 2 h culture with a toxic chemical substance
Format: cell-based, Saccharomyces cerevisiae S288C
Experimental: Yeast (Saccharomyces cerevtisiae S288C (α SUC2mal mel gap2 CUP1)) were cultured at 25° C. on YPD medium (yeast extract 1%, polypepton 2%, glucose 2%). One of toxic chemical substances was added to the cell at logarithmic growth phase, and the cell was further cultured for two hours. Cell was cultured without any chemical substance in the same condition, and was used as control. Concentrations of the chemical substances were defined to inhibit the growth of the yeast but not lead to death.
After the completion of cultivation, the culture was centrifuged to collect the cells. To the cells, sodium acetate buffer (50 mM sodium acetate, 10 mM EDTA, 1% SDS) was added, and the mixture was shaken at 65° C. for five minutes, followed by returning to room temperature, and obtaining the supernatant, which procedure was repeated two times. To the supernatant, ½ amount of a solution of phenol/chloroform was added, and the mixture was centrifuged to give a supernatant, which was added with an equal amount of chloroform, and the mixture was centrifuged to give a supernatant. To the supernatant, an equal amount of isopropanol containing 0.3 M sodium acetate was added, and the mixture was allowed to stand at room temperature for 30 minutes, after which the mixture was centrifuged to give a sediment of the whole RNAs. Seventy % ethanol was added to the sediment, and the mixture was again centrifuged to give a sediment, which was then dried and dissolved in water. mRNA was isolated from the whole RNAs as followings. In view of the fact that a poly A chain is attached to the 3′ terminus of mRNA, a polynucleotide having a poly T structure which was immobilized on the surface of latex beads was used to trap the mRNA, and then the mRNA was washed and eluted with spine column (Oligotex-dT30<Super>mRNA Purification Kit, Takara). Reverse transcription of the mRNA was conducted with a reverse transcriptase (Super Script II Reverse Transcriptase; catalogue No. 18064-014, GibcoBRL) using fluorescence-labeled nucleotides to give cDNAs that were introduced with Cy3-dUTP or Cy5-dUTP during the reverse transcription.
The labeled cDNAs were dissolved in TE buffer (10 mM Tris-HCl/1 mM EDTA, pH8.0), and the solution was dropped on the DNA chip containing the whole genes of yeast (DNA Chip Research Inc. Japan) so that the cDNAs were hybridized on the DNA chip at 65° C. for over 12 hours. The fluoresces intensity of the DNA chip was read with a scanner, and the ratio relative to the fluorescence intensity resulting from the absence of chemical substance was estimated as the following, which is shown in Tables 1 to 9: [formula]
In the Tables, “Intensity” indicated in the rightmost column is a value of the level of expressed mRNA of each gene in control cells as divided by the average level of the expressions of the whole genes.

C=CC=O [(14), acrolein]
1.7: The level of expressed mRNA in the presence of chemical substance/absence: YLR097C (gene YLR097C)
2.1: level of expressed mRNA in the presence of chemical substance/in its absence (gene YLR142W)
1.0: The level of expressed mRNA in the presence of chemical substance/absence: YGR293C (gene YGR293C) | The level of expressed mRNA in the presence of chemical substance/absence: YIL108W (gene YIL108W) | The level of expressed mRNA in the presence of chemical substance/absence: YJL017W (gene YJL017W) | The level of expressed mRNA in the presence of chemical substance/absence: YJL097W (gene YJL097W) | The level of expressed mRNA in the presence of chemical substance/absence: YJR030C (gene YJR030C) | The level of expressed mRNA in the presence of chemical substance/absence: YKL097C (gene YKL097C) | The level of expressed mRNA in the presence of chemical substance/absence: YKL100C (gene YKL100C) | The level of expressed mRNA in the presence of chemical substance/absence: YML118W (gene YML118W) | level of expressed mRNA in the presence of chemical substance/in its absence (gene YMR105C) | The level of expressed mRNA in the presence of chemical substance/absence: YMR258C (gene YMR258C) | level of expressed mRNA in the presence of chemical substance/in its absence (gene YNL012W) | level of expressed mRNA in the presence of chemical substance/in its absence (gene YNL130C) | The level of expressed mRNA in the presence of chemical substance/absence: YNL191W (gene YNL191W) | The level of expressed mRNA in the presence of chemical substance/absence: YNL212W (gene YNL212W) | level of expressed mRNA in the presence of chemical substance/in its absence (gene YNR019W) | The level of expressed mRNA in the presence of chemical substance/absence: YNR051C (gene YNR051C) | level of expressed mRNA in the presence of chemical substance/in its absence (gene YNR059W) | The level of expressed mRNA in the presence of chemical substance/absence: YOR022C (gene YOR022C)
1.3: level of expressed mRNA in the presence of chemical substance/in its absence (gene YHR190W) | The level of expressed mRNA in the presence of chemical substance/absence: YIL127C (gene YIL127C) | The level of expressed mRNA in the presence of chemical substance/absence: YIL165C (gene YIL165C) | The level of expressed mRNA in the presence of chemical substance/absence: YJR044C (gene YJR044C) | level of expressed mRNA in the presence of chemical substance/in its absence (gene YJR142W) | level of expressed mRNA in the presence of chemical substance/in its absence (gene YJR148W) | The level of expressed mRNA in the presence of chemical substance/absence: YKL094W (gene YKL094W) | level of expressed mRNA in the presence of chemical substance/in its absence (gene YLR273C) | The level of expressed mRNA in the presence of chemical substance/absence: YMR115W (gene YMR115W) | level of expressed mRNA in the presence of chemical substance/in its absence (gene YNL037C) | The level of expressed mRNA in the presence of chemical substance/absence: YOL026C (gene YOL026C) | level of expressed mRNA in the presence of chemical substance/in its absence (gene YOR130C) | The level of expressed mRNA in the presence of chemical substance/absence: YOR253W (gene YOR253W)
0.6: level of expressed mRNA in the presence of chemical substance/in its absence (gene YLR180W) | level of expressed mRNA in the presence of chemical substance/in its absence (gene YLR300W) | The level of expressed mRNA in the presence of chemical substance/absence: YNL200C (gene YNL200C) | The level of expressed mRNA in the presence of chemical substance/absence: YOL030W (gene YOL030W)
1.4: level of expressed mRNA in the presence of chemical substance/in its absence (gene YIL167W) | level of expressed mRNA in the presence of chemical substance/in its absence (gene YJL132W) | The level of expressed mRNA in the presence of chemical substance/absence: YKL090W (gene YKL090W) | The level of expressed mRNA in the presence of chemical substance/absence: YML079W (gene YML079W) | level of expressed mRNA in the presence of chemical substance/in its absence (gene YML110C) | The level of expressed mRNA in the presence of chemical substance/absence: YNL253W (gene YNL253W)
0.8: level of expressed mRNA in the presence of chemical substance/in its absence (gene YHR137W) | level of expressed mRNA in the presence of chemical substance/in its absence (gene YJL196C) | The level of expressed mRNA in the presence of chemical substance/absence: YLR338W (gene YLR338W) | The level of expressed mRNA in the presence of chemical substance/absence: YLR415C (gene YLR415C) | The level of expressed mRNA in the presence of chemical substance/absence: YLR427W (gene YLR427W) | level of expressed mRNA in the presence of chemical substance/in its absence (gene YMR272C) | The level of expressed mRNA in the presence of chemical substance/absence: YNL026W (gene YNL026W) | level of expressed mRNA in the presence of chemical substance/in its absence (gene YNL045W) | The level of expressed mRNA in the presence of chemical substance/absence: YNL058C (gene YNL058C)
3.8: The level of expressed mRNA in the presence of chemical substance/absence: YKR040C (gene YKR040C)
1.6: The level of expressed mRNA in the presence of chemical substance/absence: YHR083W (gene YHR083W) | level of expressed mRNA in the presence of chemical substance/in its absence (gene YHR092C) | The level of expressed mRNA in the presence of chemical substance/absence: YHR134W (gene YHR134W) | The level of expressed mRNA in the presence of chemical substance/absence: YHR181W (gene YHR181W) | The level of expressed mRNA in the presence of chemical substance/absence: YJL032W (gene YJL032W) | The level of expressed mRNA in the presence of chemical substance/absence: YML029W (gene YML029W) | level of expressed mRNA in the presence of chemical substance/in its absence (gene YMR189W)
0.9: The level of expressed mRNA in the presence of chemical substance/absence: YHL037C (gene YHL037C) | The level of expressed mRNA in the presence of chemical substance/absence: YHR095W (gene YHR095W) | level of expressed mRNA in the presence of chemical substance/in its absence (gene YIL154C) | level of expressed mRNA in the presence of chemical substance/in its absence (gene YNL104C) | level of expressed mRNA in the presence of chemical substance/in its absence (gene YNL169C) | The level of expressed mRNA in the presence of chemical substance/absence: YNL176C (gene YNL176C) | level of expressed mRNA in the presence of chemical substance/in its absence (gene YNL231C) | level of expressed mRNA in the presence of chemical substance/in its absence (gene YNR033W) | The level of expressed mRNA in the presence of chemical substance/absence: YOR087W (gene YOR087W) | level of expressed mRNA in the presence of chemical substance/in its absence (gene YOR136W) | The level of expressed mRNA in the presence of chemical substance/absence: YOR138C (gene YOR138C)
0.7: level of expressed mRNA in the presence of chemical substance/in its absence (gene YIL033C) | The level of expressed mRNA in the presence of chemical substance/absence: YKL051W (gene YKL051W) | level of expressed mRNA in the presence of chemical substance/in its absence (gene YMR296C) | level of expressed mRNA in the presence of chemical substance/in its absence (gene YOL143C) | level of expressed mRNA in the presence of chemical substance/in its absence (gene YOR099W)
1.2: The level of expressed mRNA in the presence of chemical substance/absence: YHR105W (gene YHR105W) | level of expressed mRNA in the presence of chemical substance/in its absence (gene YKL067W) | level of expressed mRNA in the presence of chemical substance/in its absence (gene YKR039W) | The level of expressed mRNA in the presence of chemical substance/absence: YMR071C (gene YMR071C) | level of expressed mRNA in the presence of chemical substance/in its absence (gene YNL322C) | level of expressed mRNA in the presence of chemical substance/in its absence (gene YNR002C) | level of expressed mRNA in the presence of chemical substance/in its absence (gene YOL126C) | level of expressed mRNA in the presence of chemical substance/in its absence (gene YOL157C)
1.1: The level of expressed mRNA in the presence of chemical substance/absence: YHL006C (gene YHL006C) | The level of expressed mRNA in the presence of chemical substance/absence: YHL021C (gene YHL021C) | level of expressed mRNA in the presence of chemical substance/in its absence (gene YHR037W) | level of expressed mRNA in the presence of chemical substance/in its absence (gene YIR035C) | The level of expressed mRNA in the presence of chemical substance/absence: YKL059C (gene YKL059C) | The level of expressed mRNA in the presence of chemical substance/absence: YLR226W (gene YLR226W) | The level of expressed mRNA in the presence of chemical substance/absence: YLR392C (gene YLR392C) | The level of expressed mRNA in the presence of chemical substance/absence: YML013W (gene YML013W) | The level of expressed mRNA in the presence of chemical substance/absence: YMR068W (gene YMR068W) | The level of expressed mRNA in the presence of chemical substance/absence: YMR160W (gene YMR160W) | The level of expressed mRNA in the presence of chemical substance/absence: YNL063W (gene YNL063W) | level of expressed mRNA in the presence of chemical substance/in its absence (gene YNL106C)
0.5: The level of expressed mRNA in the presence of chemical substance/absence: YLR339C (gene YLR339C)
3.0: The level of expressed mRNA in the presence of chemical substance/absence: YNL194C (gene YNL194C)
1.5: The level of expressed mRNA in the presence of chemical substance/absence: YHR180W (gene YHR180W) | The level of expressed mRNA in the presence of chemical substance/absence: YMR114C (gene YMR114C) | The level of expressed mRNA in the presence of chemical substance/absence: YNL276C (gene YNL276C) | level of expressed mRNA in the presence of chemical substance/in its absence (gene YOL058W) | level of expressed mRNA in the presence of chemical substance/in its absence (gene YOL153C) | The level of expressed mRNA in the presence of chemical substance/absence: YOR155C (gene YOR155C)
2.0: The level of expressed mRNA in the presence of chemical substance/absence: YJL037W (gene YJL037W) | level of expressed mRNA in the presence of chemical substance/in its absence (gene YJL088W) | level of expressed mRNA in the presence of chemical substance/in its absence (gene YJR159W)
2.2: The level of expressed mRNA in the presence of chemical substance/absence: YML041C (gene YML041C)
1.8: The level of expressed mRNA in the presence of chemical substance/absence: YJL049W (gene YJL049W) | level of expressed mRNA in the presence of chemical substance/in its absence (gene YMR271C)
0.4: The level of expressed mRNA in the presence of chemical substance/absence: YOR088W (gene YOR088W)
1.9: level of expressed mRNA in the presence of chemical substance/in its absence (gene YLR307W) | The level of expressed mRNA in the presence of chemical substance/absence: YNL181W (gene YNL181W) | The level of expressed mRNA in the presence of chemical substance/absence: YNL265C (gene YNL265C)
